# Data reported in patent publication US8158389B2, “Products and methods for in vivo secretion of monatin” (priority 2005, dated 2012).
# “And” between values parts separate entries of the source, which are not always exact repeats. Equal entries are not always repeated.
# Experiments:
# [1] = test system: E. coli MG1655::aspCproApProNde (control); test: AcrAB k.o. validation: growth (OD 600 nm) with novobiocin / sodium decanoate, control strain; type: cell-based, Escherichia coli; conditions: sodium decanoate 2.5 mM; novobiocin 0 ppm
# Description: Single chloramphenicol-resistant colonies were purified by restreaking on appropriate selective media and single colonies were tested by PCR as previously described for the BW25113 knockout strains, to verify the presence of the emrB and acrAB knockouts. The effects of the emrB and acrAB knockouts on the EmrAB and AcrAB transporter systems respectively were determined by assessing the phenotype of the transport mutants using appropriate antibiotics and comparison to wild type control microorganisms as shown in Table 3.1 and Table 3.2 below.
# AcrAB efflux pump = molecular target: T1, AcrAB efflux pump (Escherichia coli, UniProt P31224); test: Monatin excretion with 2.5 mM sodium decanoate treatment, strains with or without tolC overexpression; type: cell-based; conditions: for Monatin/dry cell weight, 25 hr average / Monatin/dry cell weight, 50 hr average: n = 2
# T1 construct: endogenous in cells; host or cells: E. coli BL21 (DE3) with aspCproApET32 plus pProNde with or without tolC
# T1 sequence (P0AE06 25-397): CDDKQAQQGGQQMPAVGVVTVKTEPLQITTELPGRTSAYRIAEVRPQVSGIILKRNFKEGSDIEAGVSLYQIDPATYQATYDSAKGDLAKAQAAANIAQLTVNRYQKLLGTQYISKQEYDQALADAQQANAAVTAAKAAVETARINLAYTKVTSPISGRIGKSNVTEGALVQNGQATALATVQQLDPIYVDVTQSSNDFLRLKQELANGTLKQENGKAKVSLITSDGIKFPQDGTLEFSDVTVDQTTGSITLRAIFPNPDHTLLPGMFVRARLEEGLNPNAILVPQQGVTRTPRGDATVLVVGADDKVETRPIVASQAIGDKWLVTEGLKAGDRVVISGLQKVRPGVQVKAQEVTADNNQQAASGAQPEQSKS
# T1 sequence (P02930 23-493, further chain): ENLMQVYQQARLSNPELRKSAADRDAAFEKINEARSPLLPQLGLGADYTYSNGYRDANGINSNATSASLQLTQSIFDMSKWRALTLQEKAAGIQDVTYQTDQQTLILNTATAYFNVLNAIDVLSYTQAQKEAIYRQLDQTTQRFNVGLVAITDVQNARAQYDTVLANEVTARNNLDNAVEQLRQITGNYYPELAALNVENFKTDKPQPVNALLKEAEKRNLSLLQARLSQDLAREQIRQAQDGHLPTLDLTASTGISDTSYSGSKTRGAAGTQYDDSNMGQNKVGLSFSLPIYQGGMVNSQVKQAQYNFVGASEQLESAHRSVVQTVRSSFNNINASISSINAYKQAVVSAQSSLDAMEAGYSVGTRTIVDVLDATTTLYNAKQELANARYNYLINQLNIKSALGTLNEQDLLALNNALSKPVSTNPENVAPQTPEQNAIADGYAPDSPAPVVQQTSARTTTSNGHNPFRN
# T1 sequence (P31224 whole entry): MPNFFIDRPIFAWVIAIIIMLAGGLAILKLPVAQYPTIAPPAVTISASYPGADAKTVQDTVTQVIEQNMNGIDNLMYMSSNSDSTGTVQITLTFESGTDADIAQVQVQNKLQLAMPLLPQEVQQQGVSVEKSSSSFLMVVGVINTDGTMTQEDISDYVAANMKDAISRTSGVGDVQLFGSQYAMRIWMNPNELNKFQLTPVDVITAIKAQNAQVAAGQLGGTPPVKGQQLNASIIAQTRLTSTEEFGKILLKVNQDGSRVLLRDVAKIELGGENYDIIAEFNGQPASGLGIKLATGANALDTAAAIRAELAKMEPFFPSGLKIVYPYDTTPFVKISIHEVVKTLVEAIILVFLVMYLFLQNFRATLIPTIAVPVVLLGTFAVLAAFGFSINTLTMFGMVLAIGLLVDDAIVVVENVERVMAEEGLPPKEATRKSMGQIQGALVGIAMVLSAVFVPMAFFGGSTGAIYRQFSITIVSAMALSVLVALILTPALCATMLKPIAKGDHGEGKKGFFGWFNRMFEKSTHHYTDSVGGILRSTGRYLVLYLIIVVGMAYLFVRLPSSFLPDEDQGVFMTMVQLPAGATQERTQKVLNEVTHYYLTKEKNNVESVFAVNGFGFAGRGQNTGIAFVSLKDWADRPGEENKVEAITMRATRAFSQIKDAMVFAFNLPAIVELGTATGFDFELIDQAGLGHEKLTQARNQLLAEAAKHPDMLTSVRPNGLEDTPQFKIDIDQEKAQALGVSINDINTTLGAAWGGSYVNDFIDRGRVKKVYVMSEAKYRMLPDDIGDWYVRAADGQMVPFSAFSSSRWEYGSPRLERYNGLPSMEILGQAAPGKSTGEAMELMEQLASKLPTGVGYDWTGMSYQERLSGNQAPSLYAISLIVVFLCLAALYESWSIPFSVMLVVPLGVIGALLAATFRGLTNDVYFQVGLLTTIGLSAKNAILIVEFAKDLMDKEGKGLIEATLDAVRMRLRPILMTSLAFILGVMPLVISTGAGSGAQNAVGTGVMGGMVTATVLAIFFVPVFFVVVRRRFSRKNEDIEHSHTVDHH
# Description: Strains used for the experiment included E. coli BL21 (DE3) : : aspCproApET32 and tolC pProNde or pProNde without tolC. For inoculum, the E. coli strains were grown overnight at 37° C. and 250 rpm in Luria-Bertani (“LB”) medium with 100 μg/mL ampicillin and 50 μg/mL kanamycin.
# For the experimental treatments, Trp-1+glucose medium, a minimal medium that has been used for increased production of tryptophan in E. coli cells (Zeman, et al. Folia Microbiol. 35:200-204, (1990)), was prepared as follows. To 800 mL nanopure water the following reagents were added: 2 g (NH4)2SO4 and 13.6 g KE2PO4. The pH was adjusted to 7.0, the volume was increased to 948 mL, and the medium was autoclaved. Following sterilization, 0.2 g MgSO4.7H2O, 0.01 g CaCl2.2H2O, and 0.5 mg FeSO4.7H2O were added to the medium in a 1.8 mL volume followed by addition of 0.2 mL of Neidhardt's micronutrient solution. Neidhardt, F. C., et al., “Culture medium for Enterobacteria,” J. Bacteriol. 119:736-746, (1974). Neidhardt's medium includes (per liter): 0.18 g (NH4)6(MO7)24-4H2O, 1.24 g H3BO3, 0.36 g CoCl2.6H2O, 0.12 g CuSO4 (anhydrous), 0.8 g MnCl2.4H2O, and 0.14 g ZnSO4.7H2O. A 50% glucose solution was prepared separately and sterile-filtered. Forty mL of glucose solution and 10 mL of 1 M 3-Morpholinopropanesulfonic acid (“MOPS”) buffer were added to the base medium (950 mL) for a 1 L final volume.
# Conditions for the treatments included 30° C. throughout the experiment and 250 rpm agitation. At 0.4 OD600 nm, induction of the plasmid genes was initiated. At induction, 0.5 mM IPTG, 0.5% arabinose, 0.5 mM pyridoxine hydrochloride, and 0.2 mL of Balch's vitamins (Balch, W. E., et al., “Methanogens: reevaluation of a unique biological group,” Microbiol. Rev. 43:260-296, (1979)) were added. […] Some treatments included 2.5 mM sodium decanoate addition at 3 hours following induction.
# The amount of monatin excreted was determined using the method described in Example 13.
# In this example, the combination of induction of the AcrAB efflux pump with increased availability of the TolC channels was evaluated. E. coli strains overexpressing the tolC gene were additionally subjected to treatment with 2.5 mM sodium decanoate to simultaneously induce the AcrAB pumps.
# [2] = E. coli BL21 DE3 aspC proApET32 & pProNde w/o tolC (control)
# [3] = E. coli BL21 DE3 aspC proApET32 & tolCpProNde
structure (smiles),measurement,setting,value
CCCCCCCCCC(=O)[O-].[Na+] [sodium decanoate],OD 600 nm at 19 hours,[1],1.396
same,"Monatin/dry cell weight, 25 hr",AcrAB efflux pump; [2],0.19 mg monatin/g dcw and 0.17 mg monatin/g dcw
same,"Monatin/dry cell weight, 50 hr",AcrAB efflux pump; [2],0.09 mg monatin/g dcw and 0.11 mg monatin/g dcw
same,"Monatin/dry cell weight, 25 hr",AcrAB efflux pump; [3],8.88 mg monatin/g dcw and 12.19 mg monatin/g dcw
same,"Monatin/dry cell weight, 50 hr",AcrAB efflux pump; [3],7.99 mg monatin/g dcw and 10.23 mg monatin/g dcw
same,"Monatin/dry cell weight, 25 hr average",AcrAB efflux pump; pProNde w/o tolC (control),0.18 mg monatin/g dcw
same,"Monatin/dry cell weight, 50 hr average",AcrAB efflux pump; pProNde w/o tolC (control),0.10 mg monatin/g dcw
same,"Monatin/dry cell weight, 25 hr average",AcrAB efflux pump; tolCpProNde,10.53 mg monatin/g dcw
same,"Monatin/dry cell weight, 50 hr average",AcrAB efflux pump; tolCpProNde,9.11 mg monatin/g dcw
